Where a SMILES comes first, the peptide text is derived from it. Bridges are numbered along the chain shown (N, C = ends). [ ]: non-standard residue; d: D form. The star is where a group is joined. hPhe(3-Cl-4-CF3) = N[C@@H](CCc1ccc(C(F)(F)F)c(Cl)c1)C(=O)O; NPrPhe(4-CF3) = CCCN[C@@H](Cc1ccc(C(F)(F)F)cc1)C(=O)O; Piperazinyl(4-(3-oxetanyl)) = C1OCC1N1CCN(*)CC1; NMeAbu(4,4,4-F3) = CN[C@@H](CC(F)(F)F)C(=O)O; NMeGly(cPent) = CN[C@H](C(=O)O)C1CCCC1; Pro(4,4-F2) = O=C(O)[C@@H]1CC(F)(F)CN1; NMeGly(cBu) = CN[C@H](C(=O)O)C1CCC1; Piperidide(4-Me) = CC1CCN(*)CC1; NMeD = CN[C@@H](CC(=O)O)C(=O)O; NMeL = CN[C@@H](CC(C)C)C(=O)O; NMeNva = CCC[C@H](NC)C(=O)O; NMeAbu = CC[C@H](NC)C(=O)O; Morpholide = C1CN(*)CCO1; NMeA = CN[C@@H](C)C(=O)O; Ac5c = NC1(C(=O)O)CCCC1; Aze = O=C(O)[C@@H]1CCN1; X24 = CC1(C)CCN(*)C1; Sar = CNCC(=O)O
Columns and labels:
[1] = target: GDP-bound KRAS wild-type protein (Homo sapiens, UniProt P01116); assay: Binding to KRAS by surface plasmon resonance (SPR), Single Cycle Kinetics; conditions: SPR Single Cycle Kinetics, GDP-bound KRAS wild-type protein, 1:1 binding model; read-out: KRAS KD
[2] = target: GDP-bound HRAS wild-type protein (Homo sapiens, UniProt P01112); assay: Binding to HRAS by surface plasmon resonance (SPR), Single Cycle Kinetics; conditions: SPR, GDP-bound HRAS wild-type protein vs GDP-bound KRAS wild-type protein
[3] = target: GDP-bound NRAS wild-type protein (Homo sapiens, UniProt P01111); assay: Binding to NRAS by surface plasmon resonance (SPR), Single Cycle Kinetics; conditions: SPR, GDP-bound NRAS wild-type protein vs GDP-bound KRAS wild-type protein
GDP-bound NRAS wild-type protein, sequence (P01111 whole entry): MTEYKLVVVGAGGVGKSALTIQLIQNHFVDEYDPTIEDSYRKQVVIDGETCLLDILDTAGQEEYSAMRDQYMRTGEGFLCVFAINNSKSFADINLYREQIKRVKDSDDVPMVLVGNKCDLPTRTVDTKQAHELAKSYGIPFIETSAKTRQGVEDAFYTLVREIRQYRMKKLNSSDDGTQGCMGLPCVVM

GDP-bound KRAS wild-type protein, sequence (P01116 whole entry): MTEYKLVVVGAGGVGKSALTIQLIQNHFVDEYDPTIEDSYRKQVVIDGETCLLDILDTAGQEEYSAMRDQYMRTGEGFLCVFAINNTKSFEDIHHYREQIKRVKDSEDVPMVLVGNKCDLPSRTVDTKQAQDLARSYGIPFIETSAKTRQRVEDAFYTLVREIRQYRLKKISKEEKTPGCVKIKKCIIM
GDP-bound HRAS wild-type protein, sequence (P01112 whole entry): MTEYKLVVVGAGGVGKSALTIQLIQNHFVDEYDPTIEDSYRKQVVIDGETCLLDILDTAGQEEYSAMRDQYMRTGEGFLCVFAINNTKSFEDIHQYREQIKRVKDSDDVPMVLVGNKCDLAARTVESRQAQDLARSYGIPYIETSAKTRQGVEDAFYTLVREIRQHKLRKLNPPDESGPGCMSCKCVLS

Row | SMILES | Kd [1] [nM] | HRAS/KRAS (ratio of KD value for HRAS to KD value for KRAS) [2] | NRAS/KRAS (ratio of KD value for NRAS to KD value for KRAS) [3]
1 | CCCN1C(=O)[C@@H]2CCN2C(=O)[C@H](C)N(C)C(=O)[C@H]([C@@H](C)CC)NC(=O)[C@H](CC(C)C)N(C)C(=O)C[C@@H](C(=O)N2CCN(C3COC3)CC2)N(C)C(=O)[C@H](C2CCCC2)N(C)C(=O)C2(CCCC2)NC(=O)[C@@H]2CCCN2C(=O)[C@H](CCc2ccc(C(F)(F)F)c(Cl)c2)NC(=O)CN(C)C(=O)[C@@H]1Cc1ccc(C(F)(F)F)cc1 [PP0184] ([NMeL]I[NMeA][Aze][NPrPhe(4-CF3)][Sar][hPhe(3-Cl-4-CF3)]P[Ac5c][NMeGly(cPent)][NMeD]-{Piperazinyl(4-(3-oxetanyl))}; lactam N-11) | 0.32 | B (a compound having 3 or more and less than 10 is denoted as B) | C (A compound having a KD ratio of 0.1 or more and less than 3 is denoted as C)
2 | CCCN1C(=O)[C@@H]2CCN2C(=O)[C@H](C)N(C)C(=O)[C@H]([C@@H](C)CC)NC(=O)[C@H](CC(C)C)N(C)C(=O)C[C@@H](C(=O)N2CCC(C)CC2)N(C)C(=O)[C@H](C2CCCC2)N(C)C(=O)C2(CCCC2)NC(=O)[C@@H]2CCCN2C(=O)[C@H](CCc2ccc(C(F)(F)F)c(Cl)c2)NC(=O)CN(C)C(=O)[C@@H]1Cc1ccc(C(F)(F)F)cc1 [PP0185] ([NMeL]I[NMeA][Aze][NPrPhe(4-CF3)][Sar][hPhe(3-Cl-4-CF3)]P[Ac5c][NMeGly(cPent)][NMeD]-{Piperidide(4-Me)}; lactam N-11) | 1.1 | B (a compound having 3 or more and less than 10 is denoted as B) | C (A compound having a KD ratio of 0.1 or more and less than 3 is denoted as C)
3 | CCCN1C(=O)[C@@H]2CCN2C(=O)[C@H](C)N(C)C(=O)[C@H]([C@@H](C)CC)NC(=O)[C@H](CC(C)C)N(C)C(=O)C[C@@H](C(=O)N2CCC(C)(C)C2)N(C)C(=O)[C@H](C2CCCC2)N(C)C(=O)C2(CCCC2)NC(=O)[C@@H]2CCCN2C(=O)[C@H](CCc2ccc(C(F)(F)F)c(Cl)c2)NC(=O)CN(C)C(=O)[C@@H]1Cc1ccc(C(F)(F)F)cc1 [PP0186] ([NMeL]I[NMeA][Aze][NPrPhe(4-CF3)][Sar][hPhe(3-Cl-4-CF3)]P[Ac5c][NMeGly(cPent)][NMeD]-X24; lactam N-11) | 1.7 | B (a compound having 3 or more and less than 10 is denoted as B) | C (A compound having a KD ratio of 0.1 or more and less than 3 is denoted as C)
4 | CCCN1C(=O)CN(C)C(=O)CN(C)C(=O)[C@H]([C@@H](C)CC)NC(=O)[C@H](CC(F)(F)F)N(C)C(=O)C[C@@H](C(=O)N2CCOCC2)N(C)C(=O)[C@H](C2CCCC2)N(C)C(=O)C2(CCCC2)NC(=O)[C@@H]2CCCN2C(=O)[C@H](CCc2ccc(C(F)(F)F)c(Cl)c2)NC(=O)CN(C)C(=O)[C@@H]1Cc1ccc(C(F)(F)F)cc1 [PP0187] ([NMeAbu(4,4,4-F3)]I[Sar][Sar][NPrPhe(4-CF3)][Sar][hPhe(3-Cl-4-CF3)]P[Ac5c][NMeGly(cPent)][NMeD]-Morpholide; lactam N-11) | 0.19 | C (A compound having a KD ratio of 0.1 or more and less than 3 is denoted as C) | B (a compound having 3 or more and less than 10 is denoted as B)
5 | CCCN1C(=O)CN(C)C(=O)CN(C)C(=O)[C@H]([C@@H](C)CC)NC(=O)[C@H](C2CCC2)N(C)C(=O)C[C@@H](C(=O)N2CCOCC2)N(C)C(=O)[C@H](C2CCCC2)N(C)C(=O)C2(CCCC2)NC(=O)[C@@H]2CCCN2C(=O)[C@H](CCc2ccc(C(F)(F)F)c(Cl)c2)NC(=O)CN(C)C(=O)[C@@H]1Cc1ccc(C(F)(F)F)cc1 [PP0188] ([NMeGly(cBu)]I[Sar][Sar][NPrPhe(4-CF3)][Sar][hPhe(3-Cl-4-CF3)]P[Ac5c][NMeGly(cPent)][NMeD]-Morpholide; lactam N-11) | 0.25 | C (A compound having a KD ratio of 0.1 or more and less than 3 is denoted as C) | B (a compound having 3 or more and less than 10 is denoted as B)
6 | CCC[C@H]1C(=O)N[C@@H]([C@@H](C)CC)C(=O)N(C)CC(=O)N(C)CC(=O)N(CCC)[C@@H](Cc2ccc(C(F)(F)F)cc2)C(=O)N(C)CC(=O)N[C@@H](CCc2ccc(C(F)(F)F)c(Cl)c2)C(=O)N2CCC[C@H]2C(=O)NC2(CCCC2)C(=O)N(C)[C@@H](C2CCCC2)C(=O)N(C)[C@H](C(=O)N2CCOCC2)CC(=O)N1C [PP0189] ([NMeNva]I[Sar][Sar][NPrPhe(4-CF3)][Sar][hPhe(3-Cl-4-CF3)]P[Ac5c][NMeGly(cPent)][NMeD]-Morpholide; lactam N-11) | 0.22 | C (A compound having a KD ratio of 0.1 or more and less than 3 is denoted as C) | B (a compound having 3 or more and less than 10 is denoted as B)
7 | CCCN1C(=O)CN(C)C(=O)CN(C)C(=O)[C@H]([C@@H](C)CC)NC(=O)[C@H](CC)N(C)C(=O)C[C@@H](C(=O)N2CCOCC2)N(C)C(=O)[C@H](C2CCCC2)N(C)C(=O)C2(CCCC2)NC(=O)[C@@H]2CCCN2C(=O)[C@H](CCc2ccc(C(F)(F)F)c(Cl)c2)NC(=O)CN(C)C(=O)[C@@H]1Cc1ccc(C(F)(F)F)cc1 [PP0190] ([NMeAbu]I[Sar][Sar][NPrPhe(4-CF3)][Sar][hPhe(3-Cl-4-CF3)]P[Ac5c][NMeGly(cPent)][NMeD]-Morpholide; lactam N-11) | 0.13 | B (a compound having 3 or more and less than 10 is denoted as B) | B (a compound having 3 or more and less than 10 is denoted as B)
8 | CCCN1C(=O)[C@@H]2CCN2C(=O)[C@H](C)N(C)C(=O)[C@H]([C@@H](C)CC)NC(=O)[C@H](CC(F)(F)F)N(C)C(=O)C[C@@H](C(=O)N2CCOCC2)N(C)C(=O)[C@H](C2CCCC2)N(C)C(=O)C2(CCCC2)NC(=O)[C@@H]2CCCN2C(=O)[C@H](CCc2ccc(C(F)(F)F)c(Cl)c2)NC(=O)CN(C)C(=O)[C@@H]1Cc1ccc(C(F)(F)F)cc1 [PP0191] ([NMeAbu(4,4,4-F3)]I[NMeA][Aze][NPrPhe(4-CF3)][Sar][hPhe(3-Cl-4-CF3)]P[Ac5c][NMeGly(cPent)][NMeD]-Morpholide; lactam N-11) | 0.14 | B (a compound having 3 or more and less than 10 is denoted as B) | C (A compound having a KD ratio of 0.1 or more and less than 3 is denoted as C)
9 | CCCN1C(=O)[C@@H]2CCN2C(=O)[C@H](C)N(C)C(=O)[C@H]([C@@H](C)CC)NC(=O)[C@H](C2CCC2)N(C)C(=O)C[C@@H](C(=O)N2CCOCC2)N(C)C(=O)[C@H](C2CCCC2)N(C)C(=O)C2(CCCC2)NC(=O)[C@@H]2CCCN2C(=O)[C@H](CCc2ccc(C(F)(F)F)c(Cl)c2)NC(=O)CN(C)C(=O)[C@@H]1Cc1ccc(C(F)(F)F)cc1 [PP0192] ([NMeGly(cBu)]I[NMeA][Aze][NPrPhe(4-CF3)][Sar][hPhe(3-Cl-4-CF3)]P[Ac5c][NMeGly(cPent)][NMeD]-Morpholide; lactam N-11) | 0.19 | B (a compound having 3 or more and less than 10 is denoted as B) | C (A compound having a KD ratio of 0.1 or more and less than 3 is denoted as C)
10 | CCC[C@H]1C(=O)N[C@@H]([C@@H](C)CC)C(=O)N(C)[C@@H](C)C(=O)N2CC[C@H]2C(=O)N(CCC)[C@@H](Cc2ccc(C(F)(F)F)cc2)C(=O)N(C)CC(=O)N[C@@H](CCc2ccc(C(F)(F)F)c(Cl)c2)C(=O)N2CCC[C@H]2C(=O)NC2(CCCC2)C(=O)N(C)[C@@H](C2CCCC2)C(=O)N(C)[C@H](C(=O)N2CCOCC2)CC(=O)N1C [PP0193] ([NMeNva]I[NMeA][Aze][NPrPhe(4-CF3)][Sar][hPhe(3-Cl-4-CF3)]P[Ac5c][NMeGly(cPent)][NMeD]-Morpholide; lactam N-11) | 0.17 | C (A compound having a KD ratio of 0.1 or more and less than 3 is denoted as C) | C (A compound having a KD ratio of 0.1 or more and less than 3 is denoted as C)
11 | CCCN1C(=O)[C@@H]2CCN2C(=O)[C@H](C)N(C)C(=O)[C@H]([C@@H](C)CC)NC(=O)[C@H](CC)N(C)C(=O)C[C@@H](C(=O)N2CCOCC2)N(C)C(=O)[C@H](C2CCCC2)N(C)C(=O)C2(CCCC2)NC(=O)[C@@H]2CCCN2C(=O)[C@H](CCc2ccc(C(F)(F)F)c(Cl)c2)NC(=O)CN(C)C(=O)[C@@H]1Cc1ccc(C(F)(F)F)cc1 [PP0194] ([NMeAbu]I[NMeA][Aze][NPrPhe(4-CF3)][Sar][hPhe(3-Cl-4-CF3)]P[Ac5c][NMeGly(cPent)][NMeD]-Morpholide; lactam N-11) | 0.09 | B (a compound having 3 or more and less than 10 is denoted as B) | C (A compound having a KD ratio of 0.1 or more and less than 3 is denoted as C)
12 | CCCN1C(=O)CN(C)C(=O)CN(C)C(=O)[C@H]([C@@H](C)CC)NC(=O)[C@H](CC(C)C)N(C)C(=O)C[C@@H](C(=O)N2CCOCC2)N(C)C(=O)[C@H](C2CCCC2)N(C)C(=O)C2(CCCC2)NC(=O)[C@@H]2CC(F)(F)CN2C(=O)[C@H](CCc2ccc(C(F)(F)F)c(Cl)c2)NC(=O)CN(C)C(=O)[C@@H]1Cc1ccc(C(F)(F)F)cc1 [PP0195] ([NMeL]I[Sar][Sar][NPrPhe(4-CF3)][Sar][hPhe(3-Cl-4-CF3)][Pro(4,4-F2)][Ac5c][NMeGly(cPent)][NMeD]-Morpholide; lactam N-11) | 0.091 | C (A compound having a KD ratio of 0.1 or more and less than 3 is denoted as C) | B (a compound having 3 or more and less than 10 is denoted as B)

Reference: patent US20240158446A1, “CYCLIC COMPOUND HAVING SELECTIVE INHIBITORY ACTION ON KRAS OVER HRAS AND NRAS” (CHUGAI SEIYAKU KABUSHIKI KAISHA, priority 2021, published 2024)
